From patent US20240408271A1, “Functionalized Linkers in Responsive Biomaterials” (priority 2021, published 2024)

Key:
[1] = tested on: MC3T3-E1 pre-osteoblast cells
Description: FIG. 14A is a graph showing in vitro testing with MC3T3-E1 pre-osteoblast cells to establish cytotoxicity of hydrogen peroxide.
FIG. 14B is a graph showing in vitro testing with MC3T3-E1 pre-osteoblast cells to establish cytotoxicity of ethyl pyruvate.
(§1) As shown in FIGS. 14A and 14B, in vitro cytotoxicity profiles were first established for H2O2 and ethyl pyruvate with MC3T3-E1 pre-osteoblast cells.

[2] = tested on: MC3T3-E1 cells; assay type: cell-based; conditions: MC3T3-E1, + 1 mM H2O2
Description: FIG. 14C is a graph showing a cell saving study capability test of released ethyl pyruvate and degraded ethyl pyruvate.
as §1

[3] = cited from earlier work
[4] = EPTK degradation and ethyl pyruvate release in H2O2 (NMR, HPLC); assay type: physicochemical
Description: FIG. 13B is an NMR spectrum of the thioketal peak after three days of degradation in varying ROS concentrations
A new thioketal linker was synthesized containing the small molecule therapeutic ethyl pyruvate (FIG. 12).

OO [H2O2, hydrogen peroxide]
cell death ([1]; dose of 1 mM, over 24 hrs, MC3T3-E1): ~50%

CCOC(=O)C(C)=O [ethyl pyruvate]
dose at which toxicity is displayed ([1]; mouse): ≥ 10 mM
protection of cells from oxidative toxicity [2]: robust protection

CC(=O)[C@H]1CC[C@H]2[C@@H]3CCC4=CC(=O)CC[C@]4(C)[C@H]3CC[C@]12C [progesterone]
Log P [3]: 3.78

Cc1ccc(C(=O)c2ccc(CC(=O)O)n2C)cc1 [tolmetin]
Log P [3]: 2.07

ethyl pyruvate thioketal [EPTK]
protection of cells from oxidative toxicity [2]: some inherent antioxidant protection
release of intact ethyl pyruvate ([4]; 200 mM H2O2 for 48 hrs, HPLC): intact ethyl pyruvate matching the original drug's character was released
degradation of thioketal bond ([4]; escalating doses of H2O2, NMR, three days): dose-dependent degradation
rate of ethyl pyruvate release ([4]; increasing doses of ROS): increased the rate of ethyl pyruvate release
